Assay results as given in PubChem BioAssay AID330 (DTP/NCI, 2004).
Several values for one entry are separate records, joined by “and”; a condition that tells them apart may be missing. Identical values can stand only once. Toxic doses and inconclusive results are not listed. How the source made its calls: active means survival T/C of 150% or more; inactive means T/C below 125% in these data.

System: P388 leukemia ip, CD2F1 mice, survival T/C
Assay: NCI In Vivo Anticancer Drug Screen. Data for tumor model P388 Leukemia (intraperitoneal) in CD2F1 (CDF1) mice
Settings: endpoint: median survival time, higher = longer survival
How it was run: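 Mice carrying the transplanted tumor received test compound or vehicle. Survival was recorded in each group, and the value is the treated-group measurement divided by that of the vehicle-treated control group.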

[1] = dose: 50.0 mg/kg/injection, schedule: Q01DX009 (ip), vehicle: saline
[2] = dose: 100.0 mg/kg/injection, schedule: Q01DX009 (ip), vehicle: saline
[3] = dose: 50.0 mg/kg/injection, schedule: Q01DX005 (ip), vehicle: Klucel (hydroxypropylcellulose) (HPC)
[4] = dose: 25.0 mg/kg/injection, schedule: Q01DX009 (ip), vehicle: other
[5] = dose: 50.0 mg/kg/injection, schedule: Q01DX009 (ip), vehicle: other
[6] = dose: 100.0 mg/kg/injection, schedule: Q01DX009 (ip), vehicle: other
[7] = dose: 200.0 mg/kg/injection, schedule: Q01DX009 (ip), vehicle: other
[8] = dose: 100.0 mg/kg/injection, schedule: Q01DX005 (ip), vehicle: Klucel (hydroxypropylcellulose) (HPC)
[9] = dose: 200.0 mg/kg/injection, schedule: Q01DX005 (ip), vehicle: Klucel (hydroxypropylcellulose) (HPC)
[10] = dose: 50.0 mg/kg/injection, schedule: Q01DX005 (ip), vehicle: saline with Tween-80
[11] = dose: 60.0 mg/kg/injection, schedule: Q01DX005 (ip), vehicle: saline with Tween-80
[12] = dose: 120.0 mg/kg/injection, schedule: Q01DX005 (ip), vehicle: saline with Tween-80
[13] = dose: 100.0 mg/kg/injection, schedule: Q04DX002 (ip), vehicle: saline with Tween-80
[14] = dose: 200.0 mg/kg/injection, schedule: Q04DX002 (ip), vehicle: saline with Tween-80
[15] = dose: 400.0 mg/kg/injection, schedule: Q04DX002 (ip), vehicle: saline with Tween-80
[16] = dose: 100.0 mg/kg/injection, schedule: Q01DX005 (ip), vehicle: saline with Tween-80
[17] = dose: 200.0 mg/kg/injection, schedule: Q01DX005 (ip), vehicle: saline with Tween-80
[18] = dose: 240.0 mg/kg/injection, schedule: Q01DX005 (ip), vehicle: saline with Tween-80

Measured: T/C

O=C1c2ccccc2C(=O)N1CCS(=O)(=O)O
inactive: dose: 12.5 mg/kg/injection, schedule: Q01DX009 (ip), vehicle: saline 100 % of control | dose: 25.0 mg/kg/injection, schedule: Q01DX009 (ip), vehicle: saline 104 % of control | [1] 100 % of control | [2] 98 % of control

CCN1CCC[C@]2(C)[C@H]3CC[C@@]4(C)[C@@H](CC[C@]4(C)O)[C@@H]3CC[C@@H]12
inactive: dose: 12.5 mg/kg/injection, schedule: Q01DX005 (ip), vehicle: Klucel (hydroxypropylcellulose) (HPC) 101 % of control | dose: 25.0 mg/kg/injection, schedule: Q01DX005 (ip), vehicle: Klucel (hydroxypropylcellulose) (HPC) 97 % of control | [3] 93 % of control and 95 % of control

CN(C)CCC#N
inactive: [1] 117 % of control | [2] 105 % of control | dose: 200.0 mg/kg/injection, schedule: Q01DX009 (ip), vehicle: saline 100 % of control

COc1ccc(CCN(C)CCCC(C#N)(c2ccc(OC)c(OC)c2)C(C)C)cc1OC (stereo not given)
inactive: dose: 1.0 mg/kg/injection, schedule: Q02HX018 (sc), vehicle: water 99 % of control | dose: 2.0 mg/kg/injection, schedule: Q02HX018 (sc), vehicle: water 99 % of control | dose: 4.0 mg/kg/injection, schedule: Q02HX006 (sc), vehicle: saline with Tween-80 100 % of control | dose: 4.0 mg/kg/injection, schedule: Q02HX018 (sc), vehicle: water 103 % of control | dose: 8.0 mg/kg/injection, schedule: Q02HX006 (sc), vehicle: saline with Tween-80 96 % of control | dose: 8.0 mg/kg/injection, schedule: Q02HX018 (sc), vehicle: water 110 % of control | dose: 8.0 mg/kg/injection, schedule: Q03HX006 (ip), vehicle: saline 104 % of control | dose: 16.0 mg/kg/injection, schedule: Q02HX006 (sc), vehicle: saline with Tween-80 106 % of control | dose: 16.0 mg/kg/injection, schedule: Q02HX018 (sc), vehicle: water 108 % of control | dose: 16.0 mg/kg/injection, schedule: Q03HX006 (ip), vehicle: saline 101 % of control | dose: 32.0 mg/kg/injection, schedule: Q02HX006 (sc), vehicle: saline with Tween-80 82 % of control | dose: 32.0 mg/kg/injection, schedule: Q03HX006 (ip), vehicle: saline 103 % of control | dose: 64.0 mg/kg/injection, schedule: Q02HX006 (sc), vehicle: saline with Tween-80 19 % of control

COc1ccc(CC(=O)Nc2ccc(OC)c(OC)c2)cc1OC
inactive: [4] 92 % of control | [5] 91 % of control | [6] 95 % of control | [7] 87 % of control | dose: 400.0 mg/kg/injection, schedule: Q01DX009 (ip), vehicle: other 92 % of control

Nc1nc(C2CCCC2)cc(=O)[nH]1
inactive: [3] 108 % of control | [8] 105 % of control | [9] 97 % of control

COc1ccc2c(c1)C13CCCCC1C(C2)N(C)CC3 (stereo not given)
inactive: dose: 12.5 mg/kg/injection, schedule: Q01DX005 (ip), vehicle: saline with Tween-80 94 % of control | dose: 25.0 mg/kg/injection, schedule: Q01DX005 (ip), vehicle: saline with Tween-80 100 % of control | [10] 100 % of control | dose: 50.0 mg/kg/injection, schedule: Q01DX005 (ip), vehicle: saline 99 % of control

CCCCCCCCCSc1nc2ccc(NC(=O)/C=C/C(=O)O)cc2s1
inactive: dose: 12.5 mg/kg/injection, schedule: Q01DX009 (ip), vehicle: Klucel (hydroxypropylcellulose) (HPC) 97 % of control | dose: 25.0 mg/kg/injection, schedule: Q01DX009 (ip), vehicle: Klucel (hydroxypropylcellulose) (HPC) 107 % of control | dose: 50.0 mg/kg/injection, schedule: Q01DX009 (ip), vehicle: Klucel (hydroxypropylcellulose) (HPC) 106 % of control and 107 % of control | dose: 100.0 mg/kg/injection, schedule: Q01DX009 (ip), vehicle: Klucel (hydroxypropylcellulose) (HPC) 113 % of control

CCCCC/C([O-])=C1/C(=O)N(c2ccccc2)N=C1C.CCCCC/C([O-])=C1/C(=O)N(c2ccccc2)N=C1C.[Cu+2]
inactive: [11] 96 % of control | [12] 101 % of control

CC(=O)NC(=O)Cc1ccccc1
inactive: dose: 100.0 mg/kg/injection, schedule: Q04DX002 (ip), vehicle: Klucel (hydroxypropylcellulose) (HPC) 94 % of control | dose: 200.0 mg/kg/injection, schedule: Q04DX002 (ip), vehicle: Klucel (hydroxypropylcellulose) (HPC) 95 % of control | dose: 400.0 mg/kg/injection, schedule: Q04DX002 (ip), vehicle: Klucel (hydroxypropylcellulose) (HPC) 97 % of control

COc1cccc(C(=O)NC(=O)NC(=O)c2ccccc2)c1
inactive: [13] 100 % of control | [14] 93 % of control | [15] 93 % of control

O=C(O)C(CCCCNC(=S)S)NC(=S)S.[Zn+2] (stereo not given)
inactive: [3] 95 % of control | [8] 95 % of control

CC1(N)C(=O)NC(=O)c2cnccc21 (stereo not given)
inactive: dose: 100.0 mg/kg/injection, schedule: Q01DX001 (ip), vehicle: saline 104 % of control | dose: 200.0 mg/kg/injection, schedule: Q01DX001 (ip), vehicle: saline 107 % of control | dose: 400.0 mg/kg/injection, schedule: Q01DX001 (ip), vehicle: saline 97 % of control

CCCCc1noc(N)c1SCC
inactive: [10] 105 % of control | [16] 103 % of control | [17] 107 % of control

O=C(O)Cc1c[nH]c2cc(Cl)cc(Cl)c12
inactive: [13] 101 % of control | [14] 104 % of control | [15] 101 % of control

CCOC(=O)c1ccc(NC(=O)Nc2ccccc2F)cc1
inactive: [11] 95 % of control | [12] 95 % of control | [18] 104 % of control

C=CC(=NC(C)(C)C)Nc1ccc(C(=O)OCC)cc1
inactive: dose: 50.0 mg/kg/injection, schedule: Q01DX009 (ip), vehicle: saline with Tween-80 113 % of control | dose: 100.0 mg/kg/injection, schedule: Q01DX009 (ip), vehicle: saline with Tween-80 106 % of control

O=C1OC(c2ccccc2Br)=N/C1=C/c1ccccc1
inactive: [3] 99 % of control | [8] 91 % of control | [9] 98 % of control

C/C(=N\NC(=S)Nc1nccs1)c1ccc2ccccc2n1
inactive: [10] 102 % of control | [16] 100 % of control | [17] 113 % of control

Cc1nc(O)c([N+](=O)[O-])c(=O)[nH]1
inactive: [4] 99 % of control | [5] 98 % of control | [6] 110 % of control | [7] 102 % of control

O=C1C(O)=C(O)C(=O)c2cc3c(cc21)OCO3
inactive: dose: 60.0 mg/kg/injection, schedule: Q01DX005 (ip), vehicle: Klucel (hydroxypropylcellulose) (HPC) 98 % of control | dose: 120.0 mg/kg/injection, schedule: Q01DX005 (ip), vehicle: Klucel (hydroxypropylcellulose) (HPC) 102 % of control | dose: 240.0 mg/kg/injection, schedule: Q01DX005 (ip), vehicle: Klucel (hydroxypropylcellulose) (HPC) 102 % of control

COC1=CCC(CCNC(=O)c2cc3c(cc2[N+](=O)[O-])OCO3)=CC1
inactive: [11] 101 % of control | [12] 93 % of control | [18] 98 % of control

COc1ccc2c(c1)C(=O)CC2
inactive: [3] 106 % of control | [8] 101 % of control | [9] 101 % of control

O=c1c(-c2ccccc2)nc2ccccc2n1CC1CCCN2CCCC[C@H]12 (stereo not given in full)
inactive: [11] 99 % of control | [12] 97 % of control | [18] 102 % of control
